Results published in PubChem BioAssay AID1259407 (Chemical Carcinogenesis Research Information System (CCRIS), 2018).
Calls of active or inactive are those of the source. No rule for the calls is given here. Where a SMILES comes first, the peptide text is derived from it. The star is where a group is joined. For = O=C*

Tested on: CCRIS mutagenicity, Ames/micronucleus/aberration tests
Test: CCRIS mutagenicity studies
[1] = Test System: AMES SALMONELLA TYPHIMURIUM, Strain/Indicator: TA98, Metabolic Activation: NONE, Method: STANDARD PLATE
[2] = Test System: AMES SALMONELLA TYPHIMURIUM, Strain/Indicator: TA100, Metabolic Activation: NONE, Method: STANDARD PLATE

Measured: mutagenic call

CC(O)CCl (stereo unspecified)
active: Test System: AMES SALMONELLA TYPHIMURIUM, Strain/Indicator: TA1535, Metabolic Activation: HAMSTER LIVER S-9, AROCLOR 1254 (10%), Method: PREINCUBATION active; positive | Test System: AMES SALMONELLA TYPHIMURIUM, Strain/Indicator: TA1535, Metabolic Activation: HAMSTER, LIVER, S-9, AROCLOR 1254 (10%), Method: PREINCUBATION active; positive | Test System: AMES SALMONELLA TYPHIMURIUM, Strain/Indicator: TA1535, Metabolic Activation: NONE, Method: PREINCUBATION active; positive | Test System: AMES SALMONELLA TYPHIMURIUM, Strain/Indicator: TA1535, Metabolic Activation: RAT LIVER S-9, AROCLOR 1254 (10%), Method: PREINCUBATION active; positive | Test System: AMES SALMONELLA TYPHIMURIUM, Strain/Indicator: TA1535, Metabolic Activation: RAT, LIVER, S-9, AROCLOR 1254 (10%), Method: PREINCUBATION active; positive
inactive: Test System: AMES SALMONELLA TYPHIMURIUM, Strain/Indicator: TA97, Metabolic Activation: HAMSTER, LIVER, S-9, AROCLOR 1254 (10%), Method: PREINCUBATION inactive; negative | Test System: AMES SALMONELLA TYPHIMURIUM, Strain/Indicator: TA97, Metabolic Activation: NONE, Method: PREINCUBATION inactive; negative | Test System: AMES SALMONELLA TYPHIMURIUM, Strain/Indicator: TA97, Metabolic Activation: RAT, LIVER, S-9, AROCLOR 1254 (10%), Method: PREINCUBATION inactive; negative | Test System: AMES SALMONELLA TYPHIMURIUM, Strain/Indicator: TA98, Metabolic Activation: HAMSTER LIVER S-9, AROCLOR 1254 (10%), Method: PREINCUBATION inactive; negative | Test System: AMES SALMONELLA TYPHIMURIUM, Strain/Indicator: TA98, Metabolic Activation: HAMSTER, LIVER, S-9, AROCLOR 1254 (10%), Method: PREINCUBATION inactive; negative | Test System: AMES SALMONELLA TYPHIMURIUM, Strain/Indicator: TA98, Metabolic Activation: NONE, Method: FLUCTUATION (MICROTITER) inactive; negative | Test System: AMES SALMONELLA TYPHIMURIUM, Strain/Indicator: TA98, Metabolic Activation: NONE, Method: PREINCUBATION inactive; negative | Test System: AMES SALMONELLA TYPHIMURIUM, Strain/Indicator: TA98, Metabolic Activation: RAT LIVER S-9, AROCLOR 1254 (10%), Method: PREINCUBATION inactive; negative | Test System: AMES SALMONELLA TYPHIMURIUM, Strain/Indicator: TA98, Metabolic Activation: RAT LIVER S-9, AROCLOR 1254, Method: FLUCTUATION (MICROTITER) inactive; negative | Test System: AMES SALMONELLA TYPHIMURIUM, Strain/Indicator: TA98, Metabolic Activation: RAT, LIVER, S-9, AROCLOR 1254 (10%), Method: PREINCUBATION inactive; negative | Test System: AMES SALMONELLA TYPHIMURIUM, Strain/Indicator: TA100, Metabolic Activation: HAMSTER, LIVER, S-9, AROCLOR 1254 (10%), Method: PREINCUBATION inactive; negative | Test System: AMES SALMONELLA TYPHIMURIUM, Strain/Indicator: TA100, Metabolic Activation: NONE, Method: PREINCUBATION inactive; negative | Test System: AMES SALMONELLA TYPHIMURIUM, Strain/Indicator: TA100, Metabolic Activation: RAT, LIVER, S-9, AROCLOR 1254 (10%), Method: PREINCUBATION inactive; negative | Test System: AMES SALMONELLA TYPHIMURIUM, Strain/Indicator: TA1537, Metabolic Activation: HAMSTER LIVER S-9, AROCLOR 1254 (10%), Method: PREINCUBATION inactive; negative | Test System: AMES SALMONELLA TYPHIMURIUM, Strain/Indicator: TA1537, Metabolic Activation: HAMSTER, LIVER, S-9, AROCLOR 1254 (10%), Method: PREINCUBATION inactive; negative | Test System: AMES SALMONELLA TYPHIMURIUM, Strain/Indicator: TA1537, Metabolic Activation: NONE, Method: FLUCTUATION (MICROTITER) inactive; negative | Test System: AMES SALMONELLA TYPHIMURIUM, Strain/Indicator: TA1537, Metabolic Activation: NONE, Method: PREINCUBATION inactive; negative | Test System: AMES SALMONELLA TYPHIMURIUM, Strain/Indicator: TA1537, Metabolic Activation: RAT LIVER S-9, AROCLOR 1254 (10%), Method: PREINCUBATION inactive; negative | Test System: AMES SALMONELLA TYPHIMURIUM, Strain/Indicator: TA1537, Metabolic Activation: RAT LIVER S-9, AROCLOR 1254, Method: FLUCTUATION (MICROTITER) inactive; negative | Test System: AMES SALMONELLA TYPHIMURIUM, Strain/Indicator: TA1537, Metabolic Activation: RAT, LIVER, S-9, AROCLOR 1254 (10%), Method: PREINCUBATION inactive; negative | Test System: AMES SALMONELLA TYPHIMURIUM, Strain/Indicator: TA7001, Metabolic Activation: NONE, Method: FLUCTUATION (MICROTITER) inactive; negative | Test System: AMES SALMONELLA TYPHIMURIUM, Strain/Indicator: TA7001, Metabolic Activation: RAT LIVER S-9, AROCLOR 1254, Method: FLUCTUATION (MICROTITER) inactive; negative | Test System: AMES SALMONELLA TYPHIMURIUM, Strain/Indicator: TA7002, Metabolic Activation: NONE, Method: FLUCTUATION (MICROTITER) inactive; negative | Test System: AMES SALMONELLA TYPHIMURIUM, Strain/Indicator: TA7002, Metabolic Activation: RAT LIVER S-9, AROCLOR 1254, Method: FLUCTUATION (MICROTITER) inactive; negative | Test System: AMES SALMONELLA TYPHIMURIUM, Strain/Indicator: TA7003, Metabolic Activation: NONE, Method: FLUCTUATION (MICROTITER) inactive; negative | Test System: AMES SALMONELLA TYPHIMURIUM, Strain/Indicator: TA7003, Metabolic Activation: RAT LIVER S-9, AROCLOR 1254, Method: FLUCTUATION (MICROTITER) inactive; negative | Test System: AMES SALMONELLA TYPHIMURIUM, Strain/Indicator: TA7004, Metabolic Activation: NONE, Method: FLUCTUATION (MICROTITER) inactive; negative | Test System: AMES SALMONELLA TYPHIMURIUM, Strain/Indicator: TA7004, Metabolic Activation: RAT LIVER S-9, AROCLOR 1254, Method: FLUCTUATION (MICROTITER) inactive; negative | Test System: AMES SALMONELLA TYPHIMURIUM, Strain/Indicator: TA7005, Metabolic Activation: NONE, Method: FLUCTUATION (MICROTITER) inactive; negative | Test System: AMES SALMONELLA TYPHIMURIUM, Strain/Indicator: TA7005, Metabolic Activation: RAT LIVER S-9, AROCLOR 1254, Method: FLUCTUATION (MICROTITER) inactive; negative | Test System: AMES SALMONELLA TYPHIMURIUM, Strain/Indicator: TA7006, Metabolic Activation: NONE, Method: FLUCTUATION (MICROTITER) inactive; negative | Test System: AMES SALMONELLA TYPHIMURIUM, Strain/Indicator: TA7006, Metabolic Activation: RAT LIVER S-9, AROCLOR 1254, Method: FLUCTUATION (MICROTITER) inactive; negative

C=C(C)C1CCC(=C)C2C3=C(C[C@@H](C)C3=O)C(=O)C(C)=C[C@@H]12 (stereo partly specified)
inactive: [1] inactive; negative | Test System: AMES SALMONELLA TYPHIMURIUM, Strain/Indicator: TA98, Method: STANDARD PLATE inactive; negative | [2] inactive; negative | Test System: AMES SALMONELLA TYPHIMURIUM, Strain/Indicator: TA100, Method: STANDARD PLATE inactive; negative

CC(C)COC(=O)NO
active: Test System: E. COLI, Strain/Indicator: WP2 UVRA, Metabolic Activation: NONE, Method: FLUCTUATION TEST active; positive

CNc1ccc(Cl)cc1
active: Test System: UDS RODENT HEPATOCYTES, Strain/Indicator: THY INCORP (NON-S-PHASE), Metabolic Activation: NONE, Method: AUTORADIOGRAPHY active; positive

CSCC[C@H](NC=O)C(=O)N[C@@H](Cc1ccccc1)C(=O)O (For-Met-Phe-OH)
inactive: [1] inactive; negative | Test System: AMES SALMONELLA TYPHIMURIUM, Strain/Indicator: TA98, Metabolic Activation: RAT, LIVER, S-9, AROCLOR 1254, Method: STANDARD PLATE inactive; negative | [2] inactive; negative | Test System: AMES SALMONELLA TYPHIMURIUM, Strain/Indicator: TA100, Metabolic Activation: RAT, LIVER, S-9, AROCLOR 1254, Method: STANDARD PLATE inactive; negative | Test System: AMES SALMONELLA TYPHIMURIUM, Strain/Indicator: TA1535, Metabolic Activation: NONE, Method: STANDARD PLATE inactive; negative | Test System: AMES SALMONELLA TYPHIMURIUM, Strain/Indicator: TA1535, Metabolic Activation: RAT, LIVER, S-9, AROCLOR 1254, Method: STANDARD PLATE inactive; negative | Test System: AMES SALMONELLA TYPHIMURIUM, Strain/Indicator: TA1537, Metabolic Activation: NONE, Method: STANDARD PLATE inactive; negative | Test System: AMES SALMONELLA TYPHIMURIUM, Strain/Indicator: TA1537, Metabolic Activation: RAT, LIVER, S-9, AROCLOR 1254, Method: STANDARD PLATE inactive; negative
